According to patent US9636374B2, “pH-sensitive polymer-drug conjugates for targeted delivery of therapeutics” (priority 2011, dated 2017):
Entries after “also recorded” stand apart in the source; their conditions may differ.

Columns and labels:
[1] = 3-component inhibition fluorescence assay (ARS-bortezomib competition); format: physicochemical; conditions: from pH 7.4 to pH 5.5
Description: 3-component inhibition fluorescence assay. The fluorescence assay for characterizing pH-sensitive binding between bortezomib and catechol was carried out using procedures modified from the aforementioned literature method. Briefly, a solution of 0.1 mM ARS was prepared in 0.1 M phosphate monosodium buffer (solution A). Bortezomib was dissolved in solution A to achieve final concentration of 1 mM (solution B). The pH of both solution A and solution B was adjusted to 5.5, 6.5 and 7.4 using a 4N NaOH aqueous solution. Solution B was titrated to solution A to make a series of solutions that contain constant concentration of ARS (0.1 mM) and varying concentration of bortezomib (0˜1 mM) at defined pH. After mixing the two solutions, the final solution stood for 5 minutes before fluorescence measurement at excitation 495 nm, emission 565 nm on SpectraMax M5 (Molecular Devices, Sunnyvale, Calif.). This procedure was used to probe the pH-dependence of ARS-BTZ binding (FIG. 6). The binding capacity of catechol for bortezomib was characterized based on the inhibition of catechol on ARS-bortezomib binding, resulting in a decrease in fluorescence intensity. […] Fluorescence intensity of each solution was measured to plot the binding inhibition curves in FIG. 7. […] Fmax refers to the fluorescence intensity of ARS-BTZ conjugate in solution C at a defined pH. […]

[2] = tested on: MDA-MB-231, MCF-10A-H-RasV12 and MCF-10A-Vector cells; test: Biotin-mediated cell uptake of PEG-FITC (fluorescence microscopy); format: cell-based, human; conditions: 15 minute-treatment; for cellular uptake: 1 μM, cancer and noncancerous cells
[3] = H1-NMR analysis of pH-dependent dissociation of bortezomib-catechol conjugates; format: physicochemical; conditions: as the pH decreased from 7.4 to 5.5; 1 mM in deuterated phosphate buffer
Description: First, the pH-dependent reversible binding between BTZ and catechol-containing polymers was characterized using H^1-NMR spectroscopy (FIG. 3A). At pH 5.5, mixing BTZ and catechol-containing dopamine (DA) gave a spectrum similar to that of the two individual compounds superimposed on each other, indicating the presence of un-complexed BTZ and DA.
H^1-NMR analysis of pH-dependent dissociation of bortezomib-catechol conjugates. Bortezomib and dopamine hydrogen chloride were dissolved separately in d6-DMSO 0.2 M concentration. The two solutions were mixed to give a stock solution of DA-BTZ conjugate at 0.1 M in DMSO. A solution of 0.1 M monosodium phosphate in D2O was used to dilute the DA-BTZ stock to 1 mM, and pH of such solutions were adjusted with 4N NaOH in D2O to 5.5, 6.5, 7.4 and 8.5. These solutions were analyzed on AVANCE III 500 MHz (FIG. 6) and peak integrals in the range of 7.2 to 5.5 ppm were used for quantifying the degree of dissociation of DA-BTZ presented in FIG. 3B.

PEG-catechol
decrease in binding affinity for BTZ [1]: about 60%

biotin-PEG-FITC
cellular uptake [2]: showed uptake; also recorded: rapidly taken up

PEG-FITC
cellular uptake [2]: little; also recorded: minimal

CC(C)CC(NC(=O)C(Cc1ccccc1)NC(=O)c1cnccn1)B1Oc2ccc(CCN)cc2O1 (centres unmarked) [BTZ-catechol conjugate]
increase in dissociation of the BTZ-catechol conjugate [3]: 50%

O=C(O)CCCC[C@@H]1SC[C@@H]2NC(=O)N[C@@H]21 [biotin, reference compound]
inhibition of cellular uptake of biotin-PEG-FITC ([2]; free biotin in buffer): Dose-dependent inhibition
